The values that follow come from publication PMC8348686, “The Pharmacological Profile of Second Generation Pyrovalerone Cathinones and Related Cathinone Derivative” (International Journal of Molecular Sciences, 2021).

For one test, the target named is Mouse TAAR1. The note with it: [3H]-RO5166017, read-out: Mouse TAAR1 Receptor Binding Ki ± SD, cited from earlier work.
The target in the next test is hSERT (Homo sapiens, UniProt P31645). Nature of the test: Transporter-mediated monoamine efflux, [3H]-5-HT preloaded HEK293 cells. The note with it: 100 μM of drug, 15 min, HEK293 hSERT preloaded with [3H]-5-HT; data for some pyrovalerones adapted from [13]. It counts as cell-based. More on the design: expressed in transfected cells; host or cells: HEK293. On the procedure:
(§1) Monoamine efflux was assessed using human embryonic kidney 293 (HEK293) cells (Invitrogen, Zug, Switzerland) stably transfected with the human norepinephrine (hNET), dopamine (hDAT), or serotonin (hSERT) uptake transporters. In summary, the cells were seeded in poly-D-lysine coated XF24 cell culture microplates (Seahorse Biosciences, North Billerica, MA, USA) and cultured overnight at a concentration of 100,000 cells per well.
(§2) The cells were then exposed to Krebs–HEPES release buffer (85 μL/well) comprised of 130 mM NaCl, 1.3 mM KCl, 2.2 mM CaCl2, 1.2 mM MgSO4, 1.2 mM KH2PO4, 10 mM HEPES, and 10 mM D-glucose at a pH of 7.5, which also contained 10 nM radiolabelled neurotransmitter ([^3H]-5-HT for SERT, [^3H]-DA for DAT or [^3H]-NE for NET), 1 μM unlabelled neurotransmitter (DA or NE, only), 10 μM pargyline, and 0.2 mg/mL of ascorbic acid. This enabled the loading of the cells with their respective neurotransmitters via the uptake transporters. Afterwards, the release buffer was replaced by fresh buffer to wash the cells twice and the cells were then incubated for 15 min (DAT and SERT) or 45 min (NET) to 100 μM of test drugs dissolved in 1 mL of Krebs–HEPES buffer while shaking at 300 rpm and 37 °C. Termination of the release reaction occurred by removing the buffer from the cells and washing them with ice-cold buffer. Next, 50 μL of lysis buffer was added to the cells for 1 h in order to lyse the cells. Thereafter, 40 μL of the lysed cell mixture was transferred into scintillation vials (Perkin–Elmer, Schwerzenbach, Switzerland) containing 3 mL of scintillation fluid (Ultimagold, Perkin–Elmer, Schwerzenbach, Switzerland) and measured using liquid scintillation (as previously described in Section 2.2).
(§3) To quantify the “pseudo efflux” caused by the non-transporter mediated monoamine release and successive reuptake inhibition, each monoamine efflux experiment included a control where the cells were exposed to each respective transporter blocker (nisoxetine for NET, mazindol for DAT, and citalopram for SERT). The radioactivity inside the cells without any drug was set as 100%. The nonspecific release was subtracted from the total observed release at 100 μM of each examined drug to calculate the specific transporter mediated release. One single concentration of the test drugs was used (100 μM) and release exposure durations were set based on previously evaluated kinetics of the release-over-time curves.
(§4) An ANOVA followed by a Holm–Sidak test was conducted to compare each drug’s specific transporter-mediated efflux based on at least three independent experiments to the control condition.

In test [1] the target is T1, hDAT (Homo sapiens, UniProt Q01959). The test can be described thus: Transporter-mediated monoamine efflux, [3H]-DA preloaded HEK293 cells. It counts as cell-based. The arrangement: expressed in transfected cells; host or cells: HEK293. The note with it: 100 μM of drug, 15 min, HEK293 hDAT preloaded with [3H]-DA; data for some pyrovalerones adapted from [13]. Here is the method:
as §1, §2, §3, §4

The target in another test is dopaminergic D2 receptor (Homo sapiens, UniProt P14416). To be noted: read-out: D2 Receptor Binding Ki ± SD, [3H]-Spiperone, cited from earlier work.
dopaminergic D2 receptor, sequence (P14416 whole entry): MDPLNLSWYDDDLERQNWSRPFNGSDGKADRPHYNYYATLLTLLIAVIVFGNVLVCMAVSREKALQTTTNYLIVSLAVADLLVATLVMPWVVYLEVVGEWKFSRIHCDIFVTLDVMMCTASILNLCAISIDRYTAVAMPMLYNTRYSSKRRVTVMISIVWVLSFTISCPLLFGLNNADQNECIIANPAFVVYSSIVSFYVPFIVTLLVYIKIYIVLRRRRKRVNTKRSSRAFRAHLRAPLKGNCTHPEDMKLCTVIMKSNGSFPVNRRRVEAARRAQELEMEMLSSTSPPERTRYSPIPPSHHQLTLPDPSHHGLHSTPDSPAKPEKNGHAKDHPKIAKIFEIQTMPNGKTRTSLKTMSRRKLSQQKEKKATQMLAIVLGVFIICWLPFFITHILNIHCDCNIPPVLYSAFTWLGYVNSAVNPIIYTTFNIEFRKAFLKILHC
The next test deals with Rat TAAR1. To be noted: [3H]-RO5166017, cited from earlier work; for Ki: read-out: Rat TAAR1 Receptor Binding Ki ± SD.
Test [2] addresses T1, hDAT. To be noted: read-out: hDAT Receptor Binding Ki ± SD, [3H]-WIN-35,428, cited from earlier work.
A further test addresses T2, adrenergic α2A receptor (Homo sapiens, UniProt P08913).
T2 sequence (P08913 1-465): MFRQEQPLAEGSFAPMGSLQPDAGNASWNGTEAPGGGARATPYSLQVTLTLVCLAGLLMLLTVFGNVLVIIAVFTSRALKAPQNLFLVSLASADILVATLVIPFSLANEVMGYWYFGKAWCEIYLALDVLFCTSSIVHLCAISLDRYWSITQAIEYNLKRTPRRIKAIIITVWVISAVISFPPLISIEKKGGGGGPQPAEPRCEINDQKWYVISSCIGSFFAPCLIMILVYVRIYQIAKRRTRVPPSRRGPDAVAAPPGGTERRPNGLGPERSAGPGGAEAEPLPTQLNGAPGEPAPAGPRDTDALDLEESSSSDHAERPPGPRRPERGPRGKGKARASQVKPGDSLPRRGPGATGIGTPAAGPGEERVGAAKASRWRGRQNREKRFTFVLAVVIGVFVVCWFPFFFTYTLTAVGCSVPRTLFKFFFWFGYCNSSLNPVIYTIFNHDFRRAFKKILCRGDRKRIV
The note with it: [3H]-Rauwolscine, read-out: α2A Receptor Binding Ki ± SD, cited from earlier work.

A further test has as its target T3, adrenergic α1A receptor (Homo sapiens, UniProt P35348).
T3 sequence (P35348 1-466): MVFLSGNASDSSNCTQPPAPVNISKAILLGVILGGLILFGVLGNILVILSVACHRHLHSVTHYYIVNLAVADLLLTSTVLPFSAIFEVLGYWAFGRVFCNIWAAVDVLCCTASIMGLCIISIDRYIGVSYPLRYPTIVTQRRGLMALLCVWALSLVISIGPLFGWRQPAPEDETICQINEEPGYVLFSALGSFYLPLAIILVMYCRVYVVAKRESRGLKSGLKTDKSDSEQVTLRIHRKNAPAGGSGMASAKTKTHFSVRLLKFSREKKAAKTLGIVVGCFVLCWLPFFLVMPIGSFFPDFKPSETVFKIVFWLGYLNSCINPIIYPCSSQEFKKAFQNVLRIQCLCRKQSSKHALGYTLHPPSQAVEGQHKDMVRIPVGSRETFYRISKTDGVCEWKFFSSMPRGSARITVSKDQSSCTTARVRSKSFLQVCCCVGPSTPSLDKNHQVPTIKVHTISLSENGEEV
The note with it: [3H]-Prazosin, read-out: α1A Receptor Binding Ki ± SD, cited from earlier work.

In another test the target is hNET (Homo sapiens, UniProt P23975). Nature of the test: Transporter-mediated monoamine efflux, [3H]-NE preloaded HEK293 cells. The note with it: 100 μM of drug, 45 min, HEK293 hNET preloaded with [3H]-NE; data for some pyrovalerones adapted from [13]. The arrangement: expressed in transfected cells; host or cells: HEK293. It counts as cell-based. Here is the method:
as §1, §2, §3, §4

Setting [3] is: ref Luethi, Kolaczynska et al. (2019).

Where two headings read alike, the source gives them in different places.

T1 sequence (Q01959 whole entry): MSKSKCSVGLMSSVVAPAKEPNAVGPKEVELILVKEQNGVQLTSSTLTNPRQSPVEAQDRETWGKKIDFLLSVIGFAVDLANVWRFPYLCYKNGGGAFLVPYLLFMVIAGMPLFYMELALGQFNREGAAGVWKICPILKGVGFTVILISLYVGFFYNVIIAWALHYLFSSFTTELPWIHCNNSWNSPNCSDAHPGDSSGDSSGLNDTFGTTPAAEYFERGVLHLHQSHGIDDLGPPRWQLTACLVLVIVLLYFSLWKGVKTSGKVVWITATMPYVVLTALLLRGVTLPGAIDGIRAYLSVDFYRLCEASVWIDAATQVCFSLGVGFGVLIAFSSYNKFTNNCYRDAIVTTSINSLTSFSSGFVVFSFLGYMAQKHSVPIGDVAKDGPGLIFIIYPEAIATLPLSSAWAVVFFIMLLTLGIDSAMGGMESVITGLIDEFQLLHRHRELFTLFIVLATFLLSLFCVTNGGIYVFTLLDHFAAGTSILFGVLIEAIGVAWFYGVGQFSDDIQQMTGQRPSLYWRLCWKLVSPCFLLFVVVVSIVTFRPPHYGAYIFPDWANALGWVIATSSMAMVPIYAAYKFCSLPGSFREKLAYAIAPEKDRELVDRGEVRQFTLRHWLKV
hSERT, sequence (P31645 whole entry): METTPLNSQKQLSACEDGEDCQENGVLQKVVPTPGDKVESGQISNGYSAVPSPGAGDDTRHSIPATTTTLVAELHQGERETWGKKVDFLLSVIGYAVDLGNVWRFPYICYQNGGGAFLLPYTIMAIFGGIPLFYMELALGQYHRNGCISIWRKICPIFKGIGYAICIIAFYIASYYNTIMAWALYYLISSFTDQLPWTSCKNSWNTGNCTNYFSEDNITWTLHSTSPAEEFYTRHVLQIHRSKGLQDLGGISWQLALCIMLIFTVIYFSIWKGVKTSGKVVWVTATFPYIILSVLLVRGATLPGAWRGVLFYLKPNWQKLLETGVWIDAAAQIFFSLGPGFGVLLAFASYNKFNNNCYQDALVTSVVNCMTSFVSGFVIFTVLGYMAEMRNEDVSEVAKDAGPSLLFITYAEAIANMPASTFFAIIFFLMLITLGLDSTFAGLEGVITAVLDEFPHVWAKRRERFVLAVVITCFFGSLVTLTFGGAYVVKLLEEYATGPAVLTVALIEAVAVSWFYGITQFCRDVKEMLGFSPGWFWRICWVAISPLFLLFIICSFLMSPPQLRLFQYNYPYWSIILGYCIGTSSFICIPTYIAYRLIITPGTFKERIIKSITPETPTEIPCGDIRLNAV
hNET, sequence (P23975 whole entry): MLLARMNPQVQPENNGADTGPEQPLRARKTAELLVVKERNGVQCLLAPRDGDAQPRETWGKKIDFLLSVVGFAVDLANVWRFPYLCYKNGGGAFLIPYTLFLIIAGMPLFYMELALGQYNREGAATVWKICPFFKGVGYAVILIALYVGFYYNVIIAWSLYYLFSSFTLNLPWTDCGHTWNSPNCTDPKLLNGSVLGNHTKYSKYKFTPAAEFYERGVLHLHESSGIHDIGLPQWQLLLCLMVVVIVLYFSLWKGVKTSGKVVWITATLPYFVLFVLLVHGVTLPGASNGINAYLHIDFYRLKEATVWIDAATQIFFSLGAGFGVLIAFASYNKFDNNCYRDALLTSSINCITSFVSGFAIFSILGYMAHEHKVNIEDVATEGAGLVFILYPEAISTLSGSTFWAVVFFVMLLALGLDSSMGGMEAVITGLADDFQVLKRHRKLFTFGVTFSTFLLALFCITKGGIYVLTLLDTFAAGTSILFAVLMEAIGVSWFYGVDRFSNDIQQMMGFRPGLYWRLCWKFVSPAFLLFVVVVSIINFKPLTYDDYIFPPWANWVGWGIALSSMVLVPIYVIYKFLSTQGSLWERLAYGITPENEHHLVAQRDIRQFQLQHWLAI

As to `CNC(C)Cc1ccc2c(c1)OCO2` (stereo not shown) [MDMA, 3,4-methylenedioxymethamphetamine, reference compound], the Ki on Mouse TAAR1 (setting [3]) is 3.1 ± 0.7 µM; on dopaminergic D2 receptor (setting [3]) it was over 13 µM; on Rat TAAR1 (setting [3]), 0.25 ± 0.01 µM; at hDAT [2] (setting [3]), over 8.5 µM; at adrenergic α2A receptor (setting [3]), 4.6 ± 1.1 µM; on adrenergic α1A receptor (setting [3]) it was 6.9 ± 1.2 µM. Moreover, on hSERT, the “Transporter-mediated monoamine efflux (5-HT) vs citalopram” value is reported as “causes significant release at the transporters”. Also, the “Transporter-mediated monoamine efflux (DA) vs mazindol” value on hDAT [1] is “causes significant release at the transporters”. The “Transporter-mediated monoamine efflux (NE) vs nisoxetine” value at hNET is “causes significant release at the transporters”.

`CCCC(C(=O)c1ccccc1)N1CCCC1` (stereo not drawn) [α-PVP, α-pyrrolidinopentiophenone]: the Ki on Mouse TAAR1 (ref Rickli et al. (2015)) is over 20 µM; on dopaminergic D2 receptor (ref Rickli et al. (2015)), over 10 µM; on Rat TAAR1 (ref Rickli et al. (2015)) it was 16 ± 6.4 µM; at hDAT [2] (ref Rickli et al. (2015)), 0.007 ± 0.002 µM; at adrenergic α2A receptor (ref Rickli et al. (2015)) it was over 20 µM; on adrenergic α1A receptor (ref Rickli et al. (2015)), over 15 µM. Further, the “Transporter-mediated monoamine efflux (5-HT) vs citalopram” value at hSERT was “did not induce any monoamine efflux”. Moreover, at hDAT [1], the “Transporter-mediated monoamine efflux (DA) vs mazindol” value was “did not induce any monoamine efflux”. Besides, at Rat TAAR1 (ref Rickli et al. (2015)), the “Rat TAAR1 Receptor Binding Ki ± SD” value was “bound the rat TAAR1”. For the same molecule, the “Transporter-mediated monoamine efflux (NE) vs nisoxetine” value on hNET is given as “did not induce any monoamine efflux”.

The Ki is a measure of affinity in units of concentration, obtained from inhibition or displacement.
